Literature values in publication PMC12650809, “Evolving Therapeutic Landscape of ROS1-Positive Non-Small Cell Lung Cancer: An Updated Review” (Current Oncology, 2025).
Like-named read-outs stand apart in the source and are kept apart here. Marks after values point to notes of the source that are not given here.

Legend:
[1] = system: ROS1^L2086F; set-up: method as in PMID 38070596; conditions: for resistance or activity with L2086F: ATP-binding pocket; for resistance or sensitivity conferred by ROS1^L2086F: L2086F alone or in combination with G2032R or S1986F, preclinical models
[2] = system: ROS1-positive NSCLC; conditions: for TKI-Naive ORR (%) / mPFS (Months): TKI-naïve patients; for IC-ORR (%): TKI-naïve patients evaluable for intracranial ORR
[3] = system: advanced ROS1-positive NSCLC
[4] = system: ROS1^G2032R; set-up: method as in PMID 38070596; conditions: solvent-front substitution
[5] = system: advanced ROS1-rearranged NSCLC; set-up: method as in PMID 38197815
[6] = system: ROS1-positive NSCLC; set-up: method as in earlier work; conditions: WCLC 2025 Abstract 4540; for ORR if G2032R Mutation (%): TKI-pretreated patients with G2032R; for IC-ORR (%) / TKI-Pretreated ORR (%) / mPFS (Months): TKI-pretreated patients
[7] = system: ROS1^G2032R and D2033N mutations; conditions: preclinical, in vitro
[8] = system: ROS1-positive NSCLC
[9] = system: ROS1-positive NSCLC; set-up: method as in PMID 30978502; conditions: 34 patients
[10] = system: advanced ROS1-positive NSCLC; remark: listed apart in the source
[11] = system: ROS1-positive NSCLC; set-up: method as in PMID 31584608
[12] = system: ROS1-positive NSCLC; set-up: method as in PMID 29596029; conditions: 127 patients
[13] = system: ROS1-positive NSCLC; set-up: method as in PMID 28520527
[14] = system: ROS1-positive NSCLC; set-up: method as in PMID 35227966
[15] = system: advanced ROS1-positive NSCLC; set-up: method as in PMID 31669155
[16] = system: ROS1-positive NSCLC; set-up: method as in doi:10.1200/JCO.2024.42.16_suppl.8519; conditions: 32 TKI-naïve patients
[17] = system: ROS1-positive NSCLC; remark: listed apart in the source
[18] = isolated intracranial progression on crizotinib, n = 18
[19] = ROS1 TKI-naïve patients, n = 71
[20] = previously treated with a ROS1-targeted TKI, n = 56
[21] = eight patients with baseline BMs
[22] = after at least one prior ROS1-targeted TKI
[23] = previously treated with crizotinib
[24] = 13 patients harboring ROS1^G2032R
[25] = previously treated with a ROS1 TKI, n = 113

CCc1nc(C(N)=O)c(Nc2ccc(N3CCC(N4CCN(C)CC4)CC3)c(OC)c2)nc1NC1CCOCC1 [gilteritinib]
resistance or activity with L2086F [1]: preclinical efficacy

CN1CCN(c2ccc(C(=O)Nc3n[nH]c4ccc(Cc5cc(F)cc(F)c5)cc34)c(NC3CCOCC3)c2)CC1 [Entrectinib, entrectinib]
TKI-Naive ORR (%) [2]: 68%
mPFS (Months) [2]: 15.7 Months
IC-ORR (%) [2]: 80 ^a %
ORR ([3]; 168 TKI-naïve patients): 68%
complete responses ([3]; 168 TKI-naïve patients): 13%
median DOR ([3]; 168 TKI-naïve patients): 20.5 months
median OS ([3]; 168 TKI-naïve patients): 47.8 months
median PFS ([3]; 168 TKI-naïve patients): 15.7 months
median intracranial DOR ([3]; baseline BMs): 12.9 months
intracranial ORR ([3]; baseline BMs with measurable disease): 80%
global ORR [3, 18]: 11%
intracranial ORR [3, 18]: 19%
median PFS [3, 18]: 4.7 months
resistance or sensitivity conferred by ROS1^L2086F [1]: cross-resistance
resistance or sensitivity with ROS1^G2032R [4]: high-level resistance

C[C@H]1CNC(=O)c2cnn3ccc(nc23)N[C@H](C)c2cc(F)ccc2O1 [Repotrectinib, repotrectinib]
TKI-Naive ORR (%) [2]: 79%
mPFS (Months) [2]: 35.7 Months
IC-ORR (%) [2]: 89 ^d %
resistance or activity with L2086F [1]: cross-resistance
resistance or sensitivity with ROS1^G2032R [4]: some sensitivity
treatment discontinuation due to AEs [5]: 7%
response rate ([5]; 17 patients harboring ROS1^G2032R): 59%
dizziness ([5]; AEs, mostly grade 1–2): 58%
dysgeusia ([5]; AEs, mostly grade 1–2): 50%
paresthesia ([5]; AEs, mostly grade 1–2): 30%
ORR [5, 19]: 79%
median DOR [5, 19]: 34.1 months
median PFS [5, 19]: 35.7 months
intracranial response rate ([5]; TKI-naïve, measurable BMs at baseline): 89%
ORR [5, 20]: 38%
median PFS [5, 20]: 9 months
ORR if G2032R Mutation (%) [6]: 59%
IC-ORR (%) [6]: 38%
TKI-Pretreated ORR (%) [6]: 38%
mPFS (Months) [6]: 9.0 Months
inhibitory activity against ROS1^G2032R and D2033N mutations [7]: potent inhibitory activity
Notable AEs: dizziness [8]: 58%
Notable AEs: dysgeusia [8]: 50%
Notable AEs: paresthesia [8]: 30%
Discontinuation for AEs (%) ([8]; WCLC 2025 Abstract 4540): 7%
Main Grade ≥ 3 AEs: anemia ([8]; grade ≥ 3): 4%
Main Grade ≥ 3 AEs: dizziness ([8]; grade ≥ 3): 3%

COc1cc2nccc(Oc3ccc(NC(=O)C4(C(=O)Nc5ccc(F)cc5)CC4)cc3)c2cc1OC [cabozantinib]
resistance or sensitivity conferred by ROS1^L2086F [1]: potentially retaining sensitivity
resistance or activity with L2086F [1]: preclinical efficacy

C[C@@H](Oc1cc(-c2cnn(C3CCNCC3)c2)cnc1N)c1c(Cl)ccc(F)c1Cl [Crizotinib, crizotinib]
ORR [9]: 70%
median PFS [9]: 20 months
TKI-Naive ORR (%) [2]: 72%
resistance or sensitivity conferred by ROS1^L2086F [1]: cross-resistance
4-year survival probability [10]: 51%
AEs leading to permanent treatment discontinuation [10]: No AEs led to permanent treatment discontinuation
grade 4 or 5 events [10]: no grade 4 or 5 events
median PFS [10]: 19.3 months
median duration of response (DOR) [10]: 24.7 months
median overall survival (OS) [10]: 51.4 months
median time to response [10]: 7.9 weeks
ORR ([10]; 53 patients): 72%
complete responses (number) ([10]; 53 patients): 6
partial responses (number) ([10]; 53 patients): 32
diarrhea ([10]; treatment-related AEs): 44%
nausea ([10]; treatment-related AEs): 40%
peripheral edema ([10]; treatment-related AEs): 40%
visual disturbances ([10]; treatment-related AEs): 82%
resistance or sensitivity with ROS1^G2032R [4]: high-level resistance
ORR [11]: 69.4%
median PFS [11]: 5.5 months
ORR [12]: 72%
median PFS [12]: 15.9 months
Notable AEs: diarrhea [8]: 44%
Notable AEs: nausea [8]: 40%
Notable AEs: visual disturbances [8]: 82%
Discontinuation for AEs (%) ([8]; WCLC 2025 Abstract 4540): <1%
Notable AEs: peripheral edema ([8]; WCLC 2025 Abstract 4540): 40%
Main Grade ≥ 3 AEs: hypophosphatemia ([8]; grade ≥ 3): Hypophosphatemia (10%), neutropenia (10%)
Main Grade ≥ 3 AEs: neutropenia ([8]; grade ≥ 3): Hypophosphatemia (10%), neutropenia (10%)

Cc1cc(Nc2ncc(Cl)c(Nc3ccccc3S(=O)(=O)C(C)C)n2)c(OC(C)C)cc1C1CCNCC1 [Ceritinib, ceritinib]
dose reductions required [13]: 68%
ORR ([13]; 32 patients): 62%
median DOR ([13]; 32 patients): 21 months
anorexia ([13]; AEs, predominantly grade 1–2): 56%
diarrhea ([13]; AEs, predominantly grade 1–2): 85%
nausea ([13]; AEs, predominantly grade 1–2): 72%
vomiting ([13]; AEs, predominantly grade 1–2): 45%
ORR ([13]; crizotinib-naïve patients): 67%
median OS ([13]; crizotinib-naïve patients): 24 months
median PFS ([13]; crizotinib-naïve patients): 19.3 months
CNS disease control rate [13, 21]: 63%
patients achieving an objective intracranial response [13, 21]: two
TKI-Naive ORR (%) [2]: 67%
mPFS (Months) [2]: 19.3 Months
IC-ORR (%) [2]: 25 ^b %

C[C@H]1Oc2cc(cnc2N)-c2c(nn(C)c2C#N)CN(C)C(=O)c2ccc(F)cc21 [Lorlatinib, lorlatinib]
ORR ([14]; 80 patients after at least one prior ROS1-targeted TKI): 45%
intracranial ORR [14, 22]: 72%
median OS [14, 22]: 19.6 months
median PFS [14, 22]: 7.1 months
median intracranial DOR ([14]; non-irradiated brain metastases): 20.6 months
treatment discontinuation due to AEs ([14]; real-world cohort): 13%
resistance or sensitivity conferred by ROS1^L2086F [1]: cross-resistance
resistance or sensitivity with ROS1^G2032R [4]: high-level resistance
ORR ([15]; 21 TKI-naïve patients): 62%
median DOR ([15]; TKI-naïve patients): 25.3 months
median PFS ([15]; TKI-naïve patients): 21.0 months
intracranial ORR ([15]; TKI-naïve, BMs at baseline): 64%
efficacy against ROS1^G2032R mutation ([15]; patients with secondary resistance mutations to crizotinib): limited efficacy
treatment discontinuation due to AEs ([15]; pivotal trial): 1%
ORR [15, 23]: 35%
intracranial ORR [15, 23]: 50%
median DOR [15, 23]: 13.8 months
activity in patients harboring ROS1^K1991E and ROS1^S1986F mutations ([15]; secondary resistance mutations to crizotinib): showed activity in some patients
ORR [16]: 69%
median PFS [16]: 35.8 months
ORR if G2032R Mutation (%) [6]: 0%
IC-ORR (%) [6]: 50%
mPFS (Months) [6]: 8.5 Months
Notable AEs: cognitive effects [8]: 27%
Notable AEs: dizziness [8]: 12%
Notable AEs: hypercholesterolemia [8]: 80%
Notable AEs: mood disorders [8]: 16%
Notable AEs: weight gain [8]: 23%
Discontinuation for AEs (%) ([8]; WCLC 2025 Abstract 4540): 1%
Main Grade ≥ 3 AEs: hypercholesterolemia ([8]; grade ≥ 3): 15%
Main Grade ≥ 3 AEs: hypertriglyceridemia ([8]; grade ≥ 3): 19%
Main Grade ≥ 3 AEs: weight gain ([8]; grade ≥ 3): 7%

C[C@@H](N)COc1ccc(-c2cnc3ccc(N[C@H](C)c4cccc(F)c4)nn23)cc1 [Taletrectinib, taletrectinib]
TKI-Naive ORR (%) [2]: 88.8%
mPFS (Months) [2]: 45.6 Months
IC-ORR (%) [2]: 76.5 ^e %
resistance or activity with L2086F [1]: cross-resistance
resistance or sensitivity with ROS1^G2032R [4]: some sensitivity
rate of treatment discontinuation due to toxicity [17]: 6.5%
objective response rate [17, 24]: 61.5%
patients with objective response (number) [17, 24]: 8
diarrhea ([17]; AEs, predominantly grade 1): 61%
nausea ([17]; AEs, predominantly grade 1): 44%
transaminase elevation ([17]; AEs, predominantly grade 1): 70%
confirmed ORR ([17]; TKI-naïve patients, n = 160): 88.8%
median DOR ([17]; TKI-naïve patients, n = 160): 44.2 months
median PFS ([17]; TKI-naïve patients, n = 160): 45.6 months
intracranial ORR ([17]; TKI-naïve, measurable BMs): 76.5%
median intracranial DOR ([17]; TKI-naïve, measurable BMs): 14.7 months
dizziness ([17]; neurological events): 21%
dysgeusia ([17]; neurological events): 15%
intracranial ORR ([17]; previously treated with a ROS1 TKI): 65.6%
ORR [17, 25]: 55.8%
median DOR [17, 25]: 16.6 months
median PFS [17, 25]: 9.7 months
IC-ORR (%) [6]: 65.6%
TKI-Pretreated ORR (%) [6]: 55.8%
mPFS (Months) [6]: 9.7 Months
Notable AEs: QT prolongation [8]: 18%
Notable AEs: diarrhea [8]: 61%
Notable AEs: dizziness [8]: 15%
Notable AEs: increased AST/ALT [8]: 70%
Notable AEs: nausea [8]: 44%
Notable AEs: vomiting [8]: 41%
Main Grade ≥ 3 AEs: QT prolongation ([8]; grade ≥ 3): 3%
Main Grade ≥ 3 AEs: anemia ([8]; grade ≥ 3): 3%
Main Grade ≥ 3 AEs: diarrhea ([8]; grade ≥ 3): 3%
Main Grade ≥ 3 AEs: increased AST/ALT ([8]; grade ≥ 3): 9%
Main Grade ≥ 3 AEs: neutropenia ([8]; grade ≥ 3): 4%
